# Where two headings read alike, the source gives them in different places.
# Experiments:
# P388 = details: cited from earlier work
# [1] = Solubility in aqueous media; format: physicochemical
# Excerpt: (§1) To the best of applicants' knowledge, dialdehyde monoacetals such as 10 have not been reported previously. [These should be versatile synthetons in organic synthesis since the acetal ester groups can be cleaved under extremely mild conditions (weak base or esterase activity)]. Condensation of 10 with doxorubicin, 11, in the presence of NaCNBH3 generated 2a directly in >50% yield. Evidence for the structure of 2a was obtained by ^1H and COSY NMR, and by mass spectrometry.
# [2] = system: CEM (VLB) cells (human T-lymphoblastic cell line resistant to Velban (vinblastine)); experiment: Cytotoxicity studies, CEM (VLB) cells; format: cell-based; details: for Resistance index ([CEM(VLB)]/[CEM]): ratio of IC50 values; for IC50: six days incubation with drug at 37° C., Velban (vinblastine) resistant line
# [3] = system: CEM cells (human T-lymphoblastic cell line); experiment: Cytotoxicity studies, CEM cells; format: cell-based; details: for IC50: six days incubation with drug at 37° C.
# [4] = system: 8226R40 human myeloma cells; experiment: Potency to 8226R40 human myeloma cells; format: cell-based
# Stability at neutral pH = format: physicochemical
# Excerpt: as §1
compound,measurement,setting,value
COc1cccc2c1C(=O)c1c(O)c3c(c(O)c1C2=O)C[C@@](O)(C(C)=O)C[C@@H]3O[C@H]1C[C@H](N2CCOCC2)[C@H](O)[C@H](C)O1 [3′-Deamino-3-(4-morpholinyl)daunorubicin],T/C value against P388,P388,166%
same,active dose relative to the dose of doxorubicin,P388,one-fortieth
"COc1cccc2c1C(=O)c1c(O)c3c(c(O)c1C2=O)C[C@@](O)(C(=O)CO)C[C@@H]3O[C@H]1C[C@H](NCCCCC(OC(C)=O)OC(C)=O)[C@H](O)[C@H](C)O1.Cl [Compound 2a, N-(5,5-Diacetoxypentyl) doxorubicin hydrochloride]",solubility in aqueous media,[1],freely soluble
same,cross resistance against the velban resistant mutant,[2]; compared with doxorubicin,markedly reduced cross resistance
same,Resistance index ([CEM(VLB)]/[CEM]),[2],6
same,IC50,[2],1 nM
same,times more toxic to the parent CEM cells than doxorubicin,[3]; relative to doxorubicin,60 times
same,IC50,[3],0.15 nM
same,IC50,[4],1.5 nM
same,times more potent to 8226R40 human myeloma cells than doxorubicin,[4]; relative to doxorubicin,400 times
same,stability at neutral pH,Stability at neutral pH,stable
"COc1cccc2c1C(=O)c1c(O)c3c(c(O)c1C2=O)C[C@@](O)(C(=O)CO)C[C@@H]3O[C@H]1C[C@H](N)[C@H](O)[C@H](C)O1 [Doxorubicin, reference compound]",IC50,"[2]; Homo sapiens, CEM-VLB, 144 h",1340 nM
same,Resistance index ([CEM(VLB)]/[CEM]),[2],134
same,IC50,"[3]; Homo sapiens, CCRF-CEM, 144 h",10 nM
same,T/C value against P388,P388,160%
same,IC50,[4]; Homo sapiens,600 nM
"N-(2,2-Diacetoxyethyloxyethyl) doxorubicin HCl [Compound 2b]",Resistance index ([CEM(VLB)]/[CEM]),[2],5
same,IC50,[2],15 nM
same,IC50,[3],3 nM

# From US6433150B1, “Anthracycline analogues bearing latent alkylating substituents” (Board of Regents, The University of Texas System, priority 1990, dated 2002)
